In US20130137126A1, “USE OF A BETA-G[…] FOR THE DETECTION AND/OR IDENTIFICATION OF C. DIFFICILE” (BIOMERIEUX, priority 2010, published 2013):

What was measured:
Assay type in all cases: cell-based
Clostridium difficile [1] = test: Activating effect of arbutin on a beta-glucosidase substrate (CHE-beta-glucoside), colony coloration on agar media; settings: 24 h
Protocol: Eight strains of Clostridium difficile, from the Applicant's collection, were tested on media comprising arbutin at different concentrations with or without CHE-beta-glucoside present. The reading of the dishes is then carried out at 24 h. The media is made up as follows:
C. difficile ChromID® base common to all of the media:
Then addition of arbutin and/or CHE-beta-glucoside, according to the media:
(§1) The media are distributed into Petri dishes.
(§2) The seeding is performed from 48 h pre-cultures at 37° C. in anaerobiosis.
(§3) A suspension in physiological water at 0.5 McF is carried out and then the strains are seeded with the 10 μl calibrated loop.
Readings are performed after 24 h of incubation at 37° C. in anaerobiosis.
(§4) Reading scale of the enzymatic activity/ coloration • 0=no activity • 0.5=very pale coloration • 1=clear low-intensity coloration • 2=distinct medium-intensity coloration, • 3=presence of an intense coloration, • 4=presence of a very intense coloration.
(§5) The coloration obtained with this substrate is grey up to an intensity of 1, and black for the other values.

Clostridium difficile [2] = test: Activating effect of arbutin on various beta-glucosidase substrates, colony coloration on agar media; settings: substrates DHF-, alizarin- and 3HF-beta-glucoside; 24 h and 48 h
Protocol: The eight strains of Clostridium difficile tested in Example 1 were tested on media comprising DHF-beta-glucoside (media A), alizarin-beta-glucoside (media B) or 3HF-beta-glucoside (Media C) and an increasing concentration of arbutin.
The reading of the dishes is then carried out at 24 h and 48 h.
The media used are prepared on the basis of the C. difficile chromID® medium indicated supra, for example 1, to which arbutin is added according to the following table:
According to the substrates, the media are therefore as follows: • DHF-beta-glucoside at 400 mg/L (media TA, 1A, 2A and 3A) • Alizarin-beta-glucoside at 50 mg/L (media TB, 1 B, 2B and 3B) • 3HF-beta-glucoside at 300 mg/L (media TC, 1C, 2C and 3C)
as §1, §2, §3
Readings are performed after 24 h and 48 h of incubation at 37° C. in anaerobiosis.
as §4

Clostridium difficile [3] = test: Activating effect of Ar-beta-glucoside compounds on beta-glucosidase activity, colony coloration on agar media with CHE-beta-glucoside; settings: equimolar compounds with CHE-beta-glucoside 0.3 g/l; 24 h
Protocol: Six strains of Clostridium difficile were tested on the media comprising a compound which could act as a beta-glucosidase activator in these strains. That of the strain bearing the reference 08 01 091 is 056. The compounds tested as beta-glucosidase activators are as follows: • Arbutin; • O-methyl b-glucoside; • Cellobiose; • Salicin; • 4 Aminophenyl-b-glucoside; • 4-methyl-umbelliferone-b-glucoside; • aesculin.
They were tested at concentrations which make it possible to have the same molarity for each of the compounds.
The media used are prepared on the basis of the C. difficile chromID® medium indicated supra, for example 1, to which is added the CHE-beta-glucoside substrate at 0.3 g/l and, respectively, one of the compounds according to the following table:
as §1, §2, §3
Readings are performed after 24 h of incubation at 37° C. and in anaerobiosis.
as §4, §5

| Compound | activation of the beta-glucosidase (intensification of coloration, grey to black) (Clostridium difficile [1]; arbutin added in the presence of CHE-beta-glucoside) | coloration of the colonies (Clostridium difficile [1]; arbutin alone, without CHE-beta-glucoside) | coloration intensity in the presence of arbutin (Clostridium difficile [2]) | activating effect on beta-glucosidase of Clostridium difficile (Clostridium difficile [3]) |
| --- | --- | --- | --- | --- |
| OC[C@H]1O[C@@H](Oc2ccc(O)cc2)[C@H](O)[C@@H](O)[C@@H]1O [Arbutin, hydroquinone-beta-D-glucoside] | an activation of the beta-glucosidase is noted | does not allow coloration of the colonies to be obtained | an improvement in the coloration intensity is noted regardless of the substrate used | observed activation of beta-glucosidase |
| CO[C@@H]1O[C@H](CO)[C@@H](O)[C@H](O)[C@H]1O [O-methyl-beta-glucoside, reference compound] | – | – | – | do not have an activating effect |
| O=C[C@H](O)[C@@H](O)[C@H](O[C@@H]1O[C@H](CO)[C@@H](O)[C@H](O)[C@H]1O)[C@H](O)CO [cellobiose, 4-O-beta-D-glucopyranosyl-D-glucose, reference compound] | – | – | – | do not have an activating effect |
| O=c1ccc2cc(O[C@@H]3O[C@H](CO)[C@@H](O)[C@H](O)[C@H]3O)c(O)cc2o1 [aesculin, 6,7-dihydroxy-coumarin-beta-glucoside] | – | – | – | observed activation of beta-glucosidase |
| OCc1ccccc1O[C@@H]1O[C@H](CO)[C@@H](O)[C@H](O)[C@H]1O [salicin, 2-(hydroxymethyl)-phenyl-beta-D-glucoside] | – | – | – | observed activation of beta-glucosidase |
| Nc1ccc(O[C@@H]2O[C@H](CO)[C@@H](O)[C@H](O)[C@H]2O)cc1 [4-Aminophenyl-beta-glucoside] | – | – | – | observed activation of beta-glucosidase |
